Values of other authors as cited in patent US20240009133A1, “METHODS OF TREATING AUTOIMMUNE OR INFLAMMATORY CONDITIONS WITH CANNABIDIOL OR ITS DERIVATIVES/ANALOGS” (ORCOSA INC., priority 2020, published 2024).

Settings: oral, randomized control trial in Crohn's disease

C=C(C)[C@@H]1CCC(C)=C[C@H]1c1c(O)cc(CCCCC)cc1O [CBD, cannabidiol]
efficacy: no statistical efficacy demonstrated
safety: safe
